Measured values taken from patent US20120039820A1 (Glaxo Group Limited, priority 2009, published 2012).

Key:
Streptococcus mutans = assay: MIC test (broth microdilution, turbidity); format: cell-based; conditions: TSB, 37° C., 24 hours
Description: (§1) The MIC of a material composition was determined by the following method. A fresh culture of the test inoculum of each bacterium was diluted in sterile 0.1% special peptone solution to give a concentration of approximately 10^6 colony forming units (cfu) per ml. Test samples of material were diluted in sterile tryptone soya broth (TSB) to give an initial stock solution, typically of 1% or 2% (10,000 or 20,000 ppm). However, it will be appreciated that the concentration of the initial stock solution of material can be varied if desired to investigate a different range of concentrations. Each row of a standard, 96-well plastic microtitre plate (labelled A-H) was allocated to one sample, i. e. eight samples per plate. Row H contained only TSB for use as a bacterial control to indicate the degree of turbidity resulting from bacterial growth in the absence of any test material.
(§2) Aseptically, 200 μl of the initial dilution of material was transferred to the 1st and 7th well of the appropriate row. All other test wells were filled with 100 μl of sterile TSB using an 8- channel micro-pipette. The contents of each of the wells in column 1 were mixed by sucking samples up and down the pipette tips, before 100 μl was transferred to column 2.
(§3) The same sterile pipette tips were used to transfer 100 μl of each well in column 7 into the appropriate well in column 8. This set of eight tips was then discarded into disinfectant solution. Using eight fresh, sterile tips the process was repeated by transferring 100 μl from column 2 into column 3 (and into 8 and 9). The process was continued until all the wells in columns 6 and 12 contained 200 μl. After mixing, 100 μl was discarded from wells in columns 6 and 12 to waste. Finally, 100 μl of pre-diluted bacterial test culture (approx 10^6 cfu/ml) was added, thus giving a final volume of 200 μl in each well.
(§4) A blank plate was prepared for each set of eight samples in exactly the same way, except that 100 μl of sterile TSB was added instead of the bacterial culture. This plate was used as the control plate against which the test plate (s) could be read.
(§5) Test and control plates were then sealed using autoclave tape and incubated at 37° C. for 24 hours. The wells were examined after 24 hours for turbidity to determine if the material had inhibited growth or not. Plates are then read in a suitable microtitre plate reader at an absorbance of 540 nm as a measure of turbidity resulting from bacterial growth. The control, un-inoculated plate for each set of samples was read first, and the plate reader then programmed to use the control readings to blank all other plate readings for the inoculated plates for the same set of test materials (i. e. removing turbidity due to material and possible colour changes during incubation). Thus, the corrected readings generated were absorbances resulting from turbidity from bacterial growth.

Staphylococcus aureus = assay: MIC test (broth microdilution, turbidity); format: cell-based; conditions: TSB, 37° C., 24 hours
Description: as §1, §2, §3, §4, §5

Escherichia coli = assay: MIC test (broth microdilution, turbidity); format: cell-based; conditions: TSB, 37° C., 24 hours
Description: as §1, §2, §3, §4, §5

S. aureus = assay: Kill time suspension test; format: cell-based, Staphylococcus aureus
Description: This is set aside for approximately 2 minutes. 8 ml of test product is added, a timing clock started and immediately vortexed for 5 seconds.
To 8 ml of ‘Test Sample’ add 1 ml of sterile purified water and 1 ml of synthetic saliva. This is the ‘validation solution’.
The mean number of survivors is calculated for the each test and appropriate control samples, and expressed as the log to the base 10 (Log count).

Row | Molecule | MIC (Streptococcus mutans) [parts per million] | MIC (Staphylococcus aureus) [parts per million] | MIC (Escherichia coli) [parts per million] | kill (in words) (S. aureus)
1 | Cc1cc(O)ccc1C(C)C [IPMP, 4-isopropyl-3-methylphenol] | 1250 | 156 | 312 | 
2 | zinc gluconate [Zn Gluconate] | 6250 | 6250 | 1560 | ineffective
